Measurements: patent US11286263B2, “Macrocyclic fluorine substituted indole derivatives” (The Broad Institute, Inc., priority 2017, dated 2022)
pIC50, pKd: −log10 of the molar value. Counter-ions that a name gives are not always drawn. Like-named read-outs stand apart in the source and are kept apart here.

How the values were obtained:
HMC-1-8 = assay: Antiproliferation assay HMC-1-8 (Assay 7); type: cell-based; settings: 72 h, HMC-1-8 cells, CellTiter-Glo, single determinations, read-out: IC50 Antiproli HMC-1-8
Method: Assessment of the Anti-Proliferative Effect of Compounds in Different Cell Lines
The impact of compounds on the proliferation of different cell lines was assessed using the CellTiter-Glo® Luminescent Cell Viability reagent from Promega (G7573).
In parallel, cells were plated in a reference (day 0) plate for time zero determination.
Rim wells were excluded. The cells were incubated for 72 h hours in a humidified incubator at 37° C. The day 0 plate was measured by adding 30 μL/well of CTG solution (CellTiter-Glo® Luminescent Cell Viability reagent, Promega G7573) to time zero wells in the reference plate followed by a 10 minutes incubation and luminescence reading at 0.1 ms. using the PHERAstar FS microplate reader (BMG Labtech).
After 72 h incubation, the treated plates were measured in the same way as the day 0 plate mentioned above.

MCL-1 = MCL-1 (Homo sapiens (Human), UniProt Q07820, K194A/K197A/R201A); assay: Protein-compound interaction assay (SPR assay, Assay 8); type: binding; settings: immobilized MBP-MCL-1, 25° C., geometric mean
Excerpt: Assay 8 Protein-Compound Interaction Assay (SPR Assay)
The ability of the compounds described in this invention to bind to MCL-1 may be determined using surface plasmon resonance (SPR). This allows for the quantification of binding in terms of the equilibrium dissociation constant (KD [M]), as well as association and dissociation rate constants (kon [1/M 1/s] and koff [1/s], respectively). The measurements may be performed using Biacore® T200 or Biacore® S200 instruments (GE Healthcare).
For SPR measurements, recombinant MCL-1 (amino acids 173-321, N-terminal fused to Maltose Binding Protein (MBP) (SEQ ID 1) purchased from Beryllium (Bedford, Mass., USA)) was immobilized using standard amine coupling (Johnsson B et al, Anal Biochem. 1991 Nov. 1; 198(2):268-77). Briefly, carboxymethylated dextran biosensor chips (Series S Sensor Chip CMS, GE Healthcare) were activated with 1-ethyl-3-(3-dimethylaminopropyl)-carbodiimide hydrochloride (EDC) and N-hydroxysuccinimide (NHS) according to the supplier's instructions. MBP-MCL-1 was diluted in 1×PBS-P+ (GE Healthcare) and injected on the activated chip surface. Subsequently, a solution of 1 M ethanolamine-HCl (GE Healthcare) was injected to block unreacted groups, resulting in approximately 400-2500 response units (RU) of immobilized protein. A reference surface was generated by treatment with NHS-EDC and ethanolamine-HCl. […] For SPR binding-measurements, serial dilutions of compound (eight dilution steps, typically ranging from 0.2 nM up to 1 μM) were injected over immobilized protein. […] Compounds were injected for 60 s followed by a dissociation time of up to 1000 s.
The double-referenced sensorgrams were fit to a simple reversible Langmuir 1:1 reaction mechanism as implemented in the Biacore® T200 and S200 evaluation software (T200 evaluation software version 2.0 and S200 evaluation software version 1.0, GE Healthcare).

MCL1 protein = MCL1 protein (Homo sapiens (Human), UniProt Q07820); assay: PIxEL: protein-protein interaction in permeabilized cells by ELISA (Assay 5); type: cell-based; settings: permeabilized RKO cells, biotin-BIM BH3 peptide, median
Method: Assay 5 PI×EL: Protein-Protein Interaction in Permeabilized Cells by ELISA
Most MCL1 protein molecules are localized at the mitochondria outer membrane and sequester pro-apoptotic proteins through binding of their BCL2 homology domain 3 (BH3 domain). MEB buffer (150 mM mannitol, 10 mM HEPES pH 7.5, 50 mM KCl, 20 μM EDTA, 20 μM EGTA, 5 mM potassium succinate, 0.1% protease-free BSA (SIGMA) with low dose digitonin (0.002%) permeabilizes plasma membrane while leaves live mitochondria, where MCL1 maintains its native localization and conformation. Unlike biophysical assays (e.g. TR-FRET) that use truncated recombinant MCL1 protein, this assay uses full length endogenous MCL1 protein at mitochondria outer membrane. It measures the interaction between MCL1 protein and biotinylated BIM BH3 peptide. Compounds can compete with BIM BH3 peptide to bind to MCL1 protein. This serum free assay measures the affinity between MCL1 protein and compound in permeabilized cells, therefore it is not affected by serum binding and cell permeability, and can measure the intrinsic compound affinity.
On day 1, RKO colon cancer cell line cells were plated at 0.8 million cells/ml, 100 μl/well in 96-well flat bottom TC plates (Corning). MCL1 antibody (Santa Cruz sc-12756) were diluted at 200 fold (final concentration 1 μg/ml) in carbonate buffer (Thermo Fisher Scientific, pH 9.6), and 50 μl of diluted antibody was added to each well of high bind ELISA plates (SARSTEDT). Each plate was tapped to make sure liquid covering entire bottom of wells and incubate at 37° C. overnight.
On the second day, MCL1 antibody was washed from ELISA plate. 250 μl Odyssey® Blocking Buffer (PBS) (Li-Cor) was added to each well, incubated at room temperature for at least 1 hour, then washed once with 250 μl 1×PBST. Plates with RKO cells were gently washed once with 100 μl/well PBS, once with 100 μl/well MEB buffer without digitonin, then 100 μl of MEB buffer with 0.002% digitonin was gently added to each well. Compounds were added with HP Tecan compound dispenser in 3-fold dilution series, highest dose 30 μM, 10-dose per compound in quadruplicates. Biotin-BIM peptide (synthesized by 21st Century) was added with HP Tecan compound dispenser at 0.2 μM immediately after the addition of compounds. Plates were rocked for 1 hour at room temperature. Then MEB buffer was aspirated and 50 μl of CHAPS buffer (50 mM Tris-Cl, pH 7.4, 150 mM NaCl, 1% CHAPS, 1 mM EDTA, 1 mM EGTA, complete protease inhibitors (Roche), PhosSTOP (Roche)) was added to each well. Plates were rocked for 1 hour at 4° C., then 45 μl cell lysate from each well were transferred to ELISA plates coated with MCL1 antibody. Plates were incubated overnight in the cold room with rocking.
On the third day, ELISA plates were washed once with 250 μl 1×PBST. Streptavidin-poly-HRP (Thermo Fisher Scientific) was diluted to 20 ng/ml in Odyssey blocking buffer plus 0.05% Triton-100, and 100 μl was added to each well of the ELISA plate. Plates were incubated at room temperature for 1 hour with rocking, then washed with 100 μL 1×PBST for 3 times. Each SuperSignal ELISA Femto Maximum Sensitivity substrate was added to a 50-ml tube and mixed, then 100 μl of mixed substrate was added to each well. Plates were shaken for 1 minute then luminescence was measured by Envision plate reader […]. Signal of each well were normalized by no-compound control and no-cell control. IC50 was calculated using Graphic Pad PRISM software.

MCL1 protein, sequence (Q07820 whole entry): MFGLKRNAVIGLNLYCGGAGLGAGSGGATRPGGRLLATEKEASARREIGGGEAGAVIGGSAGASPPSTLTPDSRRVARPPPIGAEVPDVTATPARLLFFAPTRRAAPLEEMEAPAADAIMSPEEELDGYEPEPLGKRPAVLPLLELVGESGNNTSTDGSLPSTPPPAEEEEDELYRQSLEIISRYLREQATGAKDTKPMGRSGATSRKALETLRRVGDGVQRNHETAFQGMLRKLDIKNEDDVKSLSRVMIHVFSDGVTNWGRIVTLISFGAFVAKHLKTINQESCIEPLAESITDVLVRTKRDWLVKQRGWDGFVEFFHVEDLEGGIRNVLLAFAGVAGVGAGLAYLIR
MCL-1, sequence (Q07820 whole entry K194A/K197A/R201A, looked up): as the sequence (Q07820 whole entry) above, with K194A, K197A, R201A counted along it

| Compound | pKd (MCL-1) | kon (MCL-1) [M⁻¹ s⁻¹] | koff (MCL-1; read-out: koff) [s⁻¹] | IC50 (MCL1 protein) [µM] | further results |
| --- | --- | --- | --- | --- | --- |
| Cc1c2c(nn1C)COCCCCn1c(C(=O)O)c(CCCOc3ccc(F)c4ccccc34)c3ccc(F)c-2c31 (racemic) [Example 15, (rac)-13-fluoro-1-(3-((4-fluoronaphthalen-1-yl)oxy)propyl)-11,12-dimethyl-4,5,6,7,9,11-hexahydropyrazolo[4′,3′:9,10][1]oxa[6]azacycloundecino[8,7,6-hi]indole-2-carboxylic acid] | – | – | – | 4.16 | – |
| CCc1nn(C)c2c1-c1c(F)ccc3c(CCCOc4cccc5ccccc45)c(C(=O)O)n(c13)CCCCOC2 (racemic) [Example 37, (rac)-12-ethyl-13-fluoro-10-methyl-1-(3-(naphthalen-1-yloxy)propyl)-4,5,6,7,9,10-hexahydro-pyrazolo[4′,3′:9,10][1]oxa[6]azacycloundecino[8,7,6-hi]indole-2-carboxylic acid] | – | – | – | 7.35 | – |
| Cc1c2c(nn1C)COCCCCn1c(C(=O)O)c(CCCOc3ccc(F)c4ccccc34)c3ccc(F)c-2c31 (single isomer, unassigned; enantiomer 1) [Example 16, 4-fluoro-7-{3-[(4-fluoronaphthalen-1-yl)oxy]propyl}-2,3-dimethyl-2,10,11,12,13,15-hexahydro-pyrazolo[4′,3′:9,10][1,6]oxazacycloundecino[8,7,6-hi]indole-8-carboxylic acid (enantiomer 1)] | – | – | – | 32.3 | – |
| CCc1c2c(nn1C)COCCCCn1c(C(=O)O)c(CCCOc3ccc(F)c4ccccc34)c3ccc(F)c-2c31 (single isomer, unassigned; enantiomer 1) [Example 27, 3-ethyl-4-fluoro-7-{3-[(4-fluoronaphthalen-1-yl)oxy]propyl}-2-methyl-2,10,11,12,13,15-hexahydropyrazolo[4′,3′:9,10][1,6]oxazacycloundecino[8,7,6-hi]indole-8-carboxylic acid-N-ethylethanamine salt (enantiomer 1)] | – | – | – | 2.43 | – |
| CCc1nn(C)c2c1-c1c(F)ccc3c(CCCOc4ccc(F)c5ccccc45)c(C(=O)O)n(c13)CCCCOC2 (single isomer, unassigned; enantiomer 1) [Example 42, 3-ethyl-4-fluoro-7-{3-[(4-fluoronaphthalen-1-yl)oxy]propyl}-1-methyl-1,10,11,12,13,15-hexahydropyrazolo[4′,3′:9,10][1,6]oxazacycloundecino[8,7,6-hi]indole-8-carboxylic acid (enantiomer 1)] | – | – | – | 8.91 | – |
| CCc1c2c(nn1C)COCCCCn1c(C(=O)O)c(CCCOc3cccc4cc(F)ccc34)c3ccc(F)c-2c31 (single isomer, unassigned; enantiomer 2) [Example 23, 3-ethyl-4-fluoro-7-{3-[(6-fluoronaphthalen-1-yl)oxy]propyl}-2-methyl-2,10,11,12,13,15-hexahydropyrazolo[4′,3′:9,10][1,6]oxazacycloundecino[8,7,6-hi]indole-8-carboxylic acid-N-ethylethanamine salt (enantiomer 2)] | 7.57 | – | – | 15.1 | koff (MCL-1): 0.0026 s⁻¹; kon [1/M 1/s] (MCL-1): 9.7E4 1/M 1/s |

The next lines start with results.

| pKd (MCL-1) | kon (MCL-1) [M⁻¹ s⁻¹] | koff (MCL-1; read-out: koff) [s⁻¹] | IC50 (MCL1 protein) [µM] | Compound | further results |
| --- | --- | --- | --- | --- | --- |
| 7.37 | 230000 | 0.01 | – | Cc1c2c(nn1C)COCCCCn1c(C(=O)O)c(CCCOc3cccc4ccccc34)c3ccc(F)c-2c31 (racemic) [Example 2, (rac)-4-fluoro-2,3-dimethyl-7-[3-(naphthalen-1-yloxy)propyl]-2,10,11,12,13,15-hexahydro-pyrazolo[4′,3′:9,10][1,6]oxazacycloundecino[8,7,6-hi]indole-8-carboxylic acid] | pIC50 (HMC-1-8): 5.00; pIC50 (HMC-1-8; listed as 02): 5.12 |
| 8.38 | 4.6e+06 | 0.019 | 1.4 | Cc1c2c(nn1C)COCCCCn1c(C(=O)O)c(CCCOc3cccc4ccccc34)c3ccc(F)c-2c31 (single isomer, unassigned; enantiomer 1) [Example 3, 4-fluoro-2,3-dimethyl-7-[3-(naphthalen-1-yloxy)propyl]-2,10,11,12,13,15-hexahydropyrazolo-[4′,3′:9,10][1,6]oxazacycloundecino[8,7,6-hi]indole-8-carboxylic acid-N-ethylethanamine salt (enantiomer 1)] | pIC50 (HMC-1-8): 5.21 |
| 8.64 | 6e+06 | 0.014 | 2.06 | CCc1c2c(nn1C)COCCCCn1c(C(=O)O)c(CCCOc3cccc4ccccc34)c3ccc(F)c-2c31 (single isomer, unassigned; enantiomer 1) [Example 7, 3-ethyl-4-fluoro-2-methyl-7-{3-[(naphthalen-1-yl)oxy]propyl}-2,10,11,12,13,15-hexahydro-pyrazolo[4′,3′:9,10][1,6]oxazacycloundecino[8,7,6-hi]indole-8-carboxylic acid-N-ethylethanamine salt (enantiomer 1)] | – |
| 9.16 | 1.1e+07 | 0.0077 | 0.872 | Cc1c2c(nn1C)COCCCCn1c(C(=O)O)c(CCCOc3cccc4cc(F)ccc34)c3ccc(F)c-2c31 (single isomer, unassigned; enantiomer 1) [Example 13, 4-fluoro-7-{3-[(6-fluoronaphthalen-1-yl)oxy]propyl}-2,3-dimethyl-2,10,11,12,13,15-hexahydro-pyrazolo[4′,3′:9,10][1,6]oxazacycloundecino[8,7,6-hi]indole-8-carboxylic acid-N-ethylethanamine salt (enantiomer 1)] | – |
